Results taken from patent US20060079537A1, “2-Substitutued triazolopyrimidines, methods and intermediate products for the production thereof, the use of the same controlling pathogenic fungi, and agents containing said compounds” (priority 2002, published 2006).

Test system: Alternaria solani
Assay: Activity against early blight of tomato caused by Alternaria solani, protective application
Format: in vivo
Conditions: 250 ppm active compound, sprayed to runoff one day before infection; visual rating after 5 days; untreated plants 100% infected
Method: The active compounds were formulated as a stock solution prepared using 0.25% by weight of active compound in acetone of DMSO. 1% by weight of the emulsifier Uniperol® EL (wetting agent having emulsifying and dispersant action based on ethoxylated alkylphenols) was added to this solution, and the solution was diluted with water to give the desired concentration.
Leaves of potted plants of the tomato cultivar: “Large Fruited St. Pierre” were sprayed to runoff point with an aqueous suspension having the concentration of active compound stated below. The next day, the leaves were infected with an aqueous spore suspension of Alternaria solani in a 2% biomalt solution having a density of 0.17×10^6 spores/ml. The plants were then placed in a water-vapor-saturated chamber at 20-22° C. After 5 days, the blight on the untreated but infected control plants had developed to such an extent that the infection could be determined visually in %.

## CSc1nc2nc(C)c(-c3c(F)cc(F)cc3F)c(N3CCC(C)CC3)n2n1 [Example 3, 5-methyl-6-(2,4,6-trifluorophenyl)-7-(4-methylpiperidin-1-yl)-2-thiomethyl-[1,2,4]-triazolo[1,5-a]pyrimidine]
  infection: 20%
